{"source": "patent US7759345B2", "about": "“Antitumoral derivatives of ET-743” (priority 2001, dated 2010)", "key": {"[1]": {"test_system": "A-549", "assay": "Inhibition of cells growth by colorimetric assay (SRB), A-549", "format": "cell-based", "outline": "(§1)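 5×10^3 cells/well; 18 h attach; compound 10–10^−8 μg/ml in DMSO/EtOH/PBS (0.5:0.5:99), 48 h, 37 °C, 5% CO2; cold 50% TCA fix 60 min 4 °C; 0.4% SRB 10 min RT; Tris solubilization; OD 490 nm; triplicates.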"}, "[2]": {"test_system": "SK-MEL-28", "assay": "Inhibition of cells growth by colorimetric assay (SRB), SK-MEL-28", "format": "cell-based", "outline": "as §1"}, "[3]": {"test_system": "HT-29", "assay": "Inhibition of cells growth by colorimetric assay (SRB), HT-29", "format": "cell-based", "outline": "as §1"}, "[4]": {"test_system": "SW620", "assay": "Inhibition of cells growth by colorimetric assay (SRB), SW620", "format": "cell-based", "experimental": "(§2) 2°.—Inhibition of Cells Growth by Colorimetric Assay.\n(§3) A colorimetric type of assay, using sulforhodamine B (SRB) reaction has been adapted for a quantitative measurement of cell growth and viability [following the technique described by Philip Skehan, et al. (1990), New colorimetric cytotoxicity assay for anticancer drug screening, J. Natl. Cancer Inst., 82:1107-1112]\n(§4) This form of the assay employs 96 well cell culture microplates of 9 mm diameter (Faircloth, 1988; Mosmann, 1983). Most of the cell lines are obtained from American Type Culture Collection (ATCC) derived from different human cancer types.\n(§5) Cells are maintained in RPMI 1640 10% FBS, supplemented with 0.1 g/l penicillin and 0.1 g/l streptomycin sulfate and then incubated at 37° C., 5% CO2 and 98% humidity. For the experiments, cells were harvested from subconfluent cultures using trypsin and resuspended in fresh medium before plating.\n(§6) Cells are seeded in 96 well microtiter plates, at 5×10^3 cells per well in aliquots of 195 μl medium, and they are allowed to attach to the plate surface by growing in drug free medium for 18 hours. Afterward, samples are added in aliquots of 5 μl in a ranging from 10 to 10^−8 μg/ml, dissolved in DMSO/EtOH/PBS (0.5:0.5:99). After 48 hours exposure, the antitumor effect are measured by the SRB methodology: cells are fixed by adding 50 μl of cold 50% (wt/vol) trichloroacetic acid (TCA) and incubating for 60 minutes at 4° C. Plates are washed with deionized water and dried. One hundred μl of SRB solution (0.4% wt/vol in 1% acetic acid) is added to each microtiter well and incubated for 10 minutes at room temperature. Unbound SRB is removed by washing with 1% acetic acid. Plates are air dried and bound stain is solubilized with Tris buffer. Optical densities are read on a automated spectrophotometric plate reader at a single wavelength of 490 nm.\n(§7) The values for mean+/−SD of data from triplicate wells are calculated. Some parameters for cellular responses can be calculated: GI=growth inhibition, TGI=total growth inhibition (cytostatic effect) and LC=cell killing (cytotoxic effect).\n(§8) Obtained results may predict the usefulness of a certain drug as a potential cancer treatment. For this technique, compounds which show GI50 values smaller than 10 μg/ml are selected to continue with further studies. GI50's data allow to predict that not only could a drug be cystostatic, but also it could have a potential in terms of tumor reduction."}, "[5]": {"test_system": "DU-145", "assay": "Inhibition of cells growth by colorimetric assay (SRB), DU-145", "format": "cell-based", "outline": "as §1"}, "[6]": {"test_system": "MCF-7", "assay": "Inhibition of cells growth by colorimetric assay (SRB), MCF-7", "format": "cell-based", "experimental": "as §2, §3, §4, §5, §6, §7, §8"}, "[7]": {"test_system": "MDA-MB-231", "assay": "Inhibition of cells growth by colorimetric assay (SRB), MDA-MB-231", "format": "cell-based", "experimental": "as §2, §3, §4, §5, §6, §7, §8"}, "[8]": {"test_system": "A-498", "assay": "Inhibition of cells growth by colorimetric assay (SRB), A-498", "format": "cell-based", "experimental": "as §2, §3, §4, §5, §6, §7, §8"}, "[9]": {"test_system": "tumor cell culture", "assay": "Bioassays for antitumor screening, cell line not given", "format": "cell-based", "conditions": "cell line not stated", "text": "Bioassays for Antitumor Screening\nThe finality of these assays is to interrupt the growth of a “in vitro” tumor cell culture by means a continued exhibition of the cells to the sample to be testing."}, "[10]": {"test_system": "Liver", "quoted_text": "(§9) Toxicity was asssessed by the methods reported in Toxicology in Vitro, 15 (2001) 571-577, J. Luber Narod et al.: “Evaluation of the use of in vitro methodolodies as tools for screening new compounds for potential in vivo toxicity”."}, "[11]": {"test_system": "Heart", "quoted_text": "as §9"}, "[12]": {"test_system": "Myelo", "quoted_text": "as §9"}, "[13]": {"test_system": "Skeletal", "quoted_text": "as §9"}, "[14]": {"test_system": "Kidney", "quoted_text": "as §9"}}}
{"smiles": "COc1cc2c(cc1OC(=O)OC(C)(C)C)CCN[C@]21CS[C@@H]2c3c(OC(=O)OC(C)(C)C)c(C)c4c(c3[C@H](COC1=O)N1C2[C@H]2c3c(cc(C)c(OC)c3OC(=O)OC(C)(C)C)C[C@@H]([C@@H]1O)N2C)OCO4", "note": "(stereo partly drawn) [Compound 174]", "values": [{"measurement": "GI50", "setting": "[1]; Homo sapiens, A549, 48 h, SRB assay, 48 hours exposure, read-out: A-549 GI50", "value": 0.98, "unit": "nM"}, {"measurement": "LC50 (concentration for 50% cell killing)", "setting": "[1]; Homo sapiens, A549, 48 h, read-out: A-549 LC50, SRB assay, 48 hours exposure", "value": 9.8, "unit": "nM"}, {"measurement": "A-549 TGI", "setting": "[1]; SRB assay, 48 hours exposure", "value": "2.94E-09"}, {"measurement": "GI50", "setting": "[2]; Homo sapiens, SK-MEL-28, 48 h, SRB assay, 48 hours exposure, read-out: MEL-28 GI50", "value": 1.96, "unit": "nM"}, {"measurement": "CC50", "setting": "[2]; Homo sapiens, SK-MEL-28, 48 h, read-out: MEL-28 LC50, SRB assay, 48 hours exposure", "value": 9.8, "unit": "nM"}, {"measurement": "MEL-28 TGI", "setting": "[2]; SRB assay, 48 hours exposure", "value": "4.90E-09"}, {"measurement": "GI50", "setting": "[3]; Homo sapiens, HT-29, 48 h, SRB assay, 48 hours exposure, read-out: HT-29 GI50", "value": 1.96, "unit": "nM"}, {"measurement": "LC50 (concentration for 50% cell killing)", "setting": "[3]; Homo sapiens, HT-29, 48 h, read-out: HT-29 LC50, SRB assay, 48 hours exposure", "value": 9.8, "unit": "nM"}, {"measurement": "HT-29 TGI", "setting": "[3]; SRB assay, 48 hours exposure", "value": "6.86E-09"}, {"measurement": "LC50", "setting": "[4]; Homo sapiens, SW-620, 48 h, read-out: SW-620 LC50", "value": 686, "unit": "nM"}, {"measurement": "GI50", "setting": "[4]; Homo sapiens, SW-620, SRB assay, 48 hours exposure, read-out: SW-620 GI50", "value": 0.98, "unit": "nM"}, {"measurement": "SW-620 TGI", "setting": "[4]; SRB assay, 48 hours exposure", "value": "6.86E-09"}, {"measurement": "GI50", "setting": "[5]; Homo sapiens, DU-145, 48 h, SRB assay, 48 hours exposure, read-out: DU-145 GI50", "value": 0.294, "unit": "nM"}, {"measurement": "CC50", "setting": "[5]; Homo sapiens, DU-145, 48 h, read-out: DU-145 LC50, SRB assay, 48 hours exposure", "value": 3.92, "unit": "nM"}, {"measurement": "DU-145 TGI", "setting": "[5]; SRB assay, 48 hours exposure", "value": "9.80E-10"}, {"measurement": "GI50", "setting": "[6]; Homo sapiens, MCF7, 48 h, read-out: MCF GI50", "value": 3.92, "unit": "nM"}, {"measurement": "CC50", "setting": "[6]; Homo sapiens, MCF7, 48 h, read-out: MCF LC50", "value": 88.2, "unit": "nM"}, {"measurement": "MCF TGI", "setting": "[6]; SRB assay, 48 hours exposure", "value": "1.96E-08"}, {"measurement": "CC50", "setting": "[7]; Homo sapiens, MDA-MB-231, 48 h, read-out: MB-231 LC50", "value": 98, "unit": "nM"}, {"measurement": "GI50", "setting": "[7]; Homo sapiens, MDA-MB-231, SRB assay, 48 hours exposure, read-out: MB-231 GI50", "value": 0.98, "unit": "nM"}, {"measurement": "MB-231 TGI", "setting": "[7]; SRB assay, 48 hours exposure", "value": "5.88E-09"}, {"measurement": "LC50", "setting": "[8]; Homo sapiens, A498, 48 h, read-out: A-498 LC50", "value": 9.8, "unit": "nM"}, {"measurement": "GI50", "setting": "[8]; Homo sapiens, A498, SRB assay, 48 hours exposure, read-out: A-498 GI50", "value": 1.96, "unit": "nM"}, {"measurement": "A-498 TGI", "setting": "[8]; SRB assay, 48 hours exposure", "value": "3.92E-09"}, {"measurement": "antitumor activity (in words)", "setting": "[9]", "value": "very active (E-10)"}, {"measurement": "Toxicity Data Liver", "setting": "[10]", "value": "1.34E-08"}, {"measurement": "Toxicity Data Heart", "setting": "[11]", "value": "2.76E-08"}, {"measurement": "Toxicity Data Myelo", "setting": "[12]", "value": "7.27E-08"}, {"measurement": "Toxicity Data Skeletal", "setting": "[13]", "value": "9.80E-07"}, {"measurement": "Toxicity Data Kidney", "setting": "[14]", "value": "1.24E-08"}]}
